Measurements as given in ChEMBL document CHEMBL4699634, “Series of Novel and Highly Potent Cyclic Peptide PCSK9 Inhibitors Derived from an mRNA Display Screen and Optimized via Structure-Based Design” (J Med Chem, 2020).
Numbered stars: 1 amine (or outer) side, 2 acyl side, 3 side chain; on linkers, the order of the positions; unused ones are H or OH. Bridge positions count the residues as written; N and C are the ends. Square brackets hold non-standard residues; d marks the D form. Peptide text beside a SMILES is read from it. ξ: configuration not given here. Trp(5-F) = N[C@@H](Cc1c[nH]c2ccc(F)cc12)C(=O)O; mXylylene(5-F) = Fc1cc(C[*:1])cc(C[*:2])c1; X4 = CC(N[*:1])(C(=O)[*:2])c1cccc2ccccc12; X1 = O=C(CCSCc1cccc(CSCCN[*:1])c1)[*:2]; mXylylene = c1cc(C[*:1])cc(C[*:2])c1; NMeD = CN[C@@H](CC(=O)O)C(=O)O; NMeK = CN[C@@H](CCCCN)C(=O)O; ξhPhe = NC(CCc1ccccc1)C(=O)O; αMeP = C[C@@]1(C(=O)O)CCCN1; Mpa = O=C(O)CCS; Sar = CNCC(=O)O

Columns and labels:
[1] = biological target: Proprotein convertase subtilisin/kexin type 9 (Homo sapiens, UniProt Q8NBP7); test: Inhibition of AlexaFluor647-tagged cyclic peptide binding to avi-tagged-biotinylated human PCSK9 measured after 2 hrs by Lance Streptavidin Europium based FRET assay
[2] = Cytotoxicity against Wistar rat isolated peritoneal cells assessed as reduction in cell viability up to 60 uM measured after 30 mins; format: cell-based; conditions: peritoneal macrophage cell, 0.5 h
[3] = Induction of mast cell degranulation in Wistar rat isolated peritoneal cells assessed as effect on histamine release measured after 30 mins; format: tissue-based; conditions: Rattus norvegicus, Wistar, Mast cell, 0.5 h; read-out: EC50
[4] = biological target: PCSK9/LDLR (Homo sapiens, UniProt Q8NBP7); test: Inhibition of avi-tagged-biotinylated human PCSK9 interaction with His-tagged human LDLR EGFa domain by LANCE Ulight Streptavidin based TR-FRET assay; format: protein assay
[5] = biological target: Chymotrypsin-like elastase family member 1 (Sus scrofa, UniProt P00772); test: Enzymatic stability assessed as porcine type 4 pancreatic elastase-mediated compound hydrolysis by measuring parent compound remaining at 100 uM incubated for 1 hr by LC-MS/MS analysis; format: ADME; conditions: pig, read-out: Stabilty
[6] = Enzymatic stability assessed as porcine pepsin-mediated compound hydrolysis by measuring parent compound remaining at 100 uM incubated for 1 hr by LC-MS/MS analysis; format: ADME, Sus scrofa; conditions: pig, read-out: Stabilty
[7] = biological target: Chymotrypsinogen A (Bos taurus, UniProt P00766); test: Enzymatic stability assessed as bovine pancreatic alpha-chymotrypsin-mediated compound hydrolysis by measuring parent compound remaining at 100 uM incubated for 1 hr by LC-MS/MS analysis; format: ADME; conditions: cattle, read-out: Stabilty
[8] = Enzymatic stability assessed as bovine pancreatic trypsin-mediated compound hydrolysis by measuring parent compound remaining at 100 uM incubated for 1 hr by LC-MS/MS analysis; format: ADME, Bos taurus; conditions: cattle, read-out: Stabilty
[9] = Half life in C57BL/6 mouse whole blood at 100 uM by LC-MS/MS analysis; format: ADME, tissue-based

Chain of Proprotein convertase subtilisin/kexin type 9 (Q8NBP7 31-152 limits assumed): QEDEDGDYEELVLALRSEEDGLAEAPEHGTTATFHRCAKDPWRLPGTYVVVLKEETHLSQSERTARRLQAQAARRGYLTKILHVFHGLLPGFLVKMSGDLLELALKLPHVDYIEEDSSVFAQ
Chain of Proprotein convertase subtilisin/kexin type 9 (Q8NBP7 153-692 limits assumed): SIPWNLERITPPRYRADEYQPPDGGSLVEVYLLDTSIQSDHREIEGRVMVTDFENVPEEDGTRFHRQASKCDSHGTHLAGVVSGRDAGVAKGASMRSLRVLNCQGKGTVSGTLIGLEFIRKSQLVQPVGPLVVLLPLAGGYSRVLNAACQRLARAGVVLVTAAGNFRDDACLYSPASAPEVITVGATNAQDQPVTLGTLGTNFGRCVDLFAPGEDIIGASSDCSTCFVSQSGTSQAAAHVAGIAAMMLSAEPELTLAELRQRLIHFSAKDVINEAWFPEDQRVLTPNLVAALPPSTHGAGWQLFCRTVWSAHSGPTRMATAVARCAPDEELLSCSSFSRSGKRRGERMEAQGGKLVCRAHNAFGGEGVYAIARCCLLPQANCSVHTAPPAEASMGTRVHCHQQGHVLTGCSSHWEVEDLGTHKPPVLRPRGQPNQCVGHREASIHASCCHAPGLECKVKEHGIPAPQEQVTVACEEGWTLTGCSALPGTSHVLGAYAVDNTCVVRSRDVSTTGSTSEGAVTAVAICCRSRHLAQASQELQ
Chain of PCSK9/LDLR (Q8NBP7 31-152 limits assumed): as the sequence (Q8NBP7 31-152 limits assumed) above
Chain of PCSK9/LDLR (Q8NBP7 153-692 limits assumed): as the sequence (Q8NBP7 153-692 limits assumed) above
Chain of PCSK9/LDLR (P01130 22-860 partner limits assumed): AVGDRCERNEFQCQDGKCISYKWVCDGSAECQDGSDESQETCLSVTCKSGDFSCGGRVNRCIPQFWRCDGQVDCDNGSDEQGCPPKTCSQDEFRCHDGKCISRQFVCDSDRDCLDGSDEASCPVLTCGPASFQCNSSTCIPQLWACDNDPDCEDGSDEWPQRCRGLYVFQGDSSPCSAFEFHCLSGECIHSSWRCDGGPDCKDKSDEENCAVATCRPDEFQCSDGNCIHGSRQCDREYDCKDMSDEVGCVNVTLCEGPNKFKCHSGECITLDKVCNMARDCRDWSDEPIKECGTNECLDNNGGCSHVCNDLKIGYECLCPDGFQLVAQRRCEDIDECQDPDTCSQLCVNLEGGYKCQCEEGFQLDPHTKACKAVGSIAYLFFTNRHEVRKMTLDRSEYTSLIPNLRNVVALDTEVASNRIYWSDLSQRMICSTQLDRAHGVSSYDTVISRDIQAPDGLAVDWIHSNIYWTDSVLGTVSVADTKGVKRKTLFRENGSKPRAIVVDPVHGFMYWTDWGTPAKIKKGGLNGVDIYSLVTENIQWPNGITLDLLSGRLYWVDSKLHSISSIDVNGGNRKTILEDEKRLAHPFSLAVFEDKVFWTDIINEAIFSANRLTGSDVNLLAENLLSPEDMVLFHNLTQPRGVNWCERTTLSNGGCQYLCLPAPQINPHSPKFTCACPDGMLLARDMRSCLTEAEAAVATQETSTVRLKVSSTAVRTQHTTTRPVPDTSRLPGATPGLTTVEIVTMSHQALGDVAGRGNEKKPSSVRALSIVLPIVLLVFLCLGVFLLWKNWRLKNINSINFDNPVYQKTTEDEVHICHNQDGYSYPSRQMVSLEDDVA
Chain of Chymotrypsin-like elastase family member 1 (P00772 whole entry): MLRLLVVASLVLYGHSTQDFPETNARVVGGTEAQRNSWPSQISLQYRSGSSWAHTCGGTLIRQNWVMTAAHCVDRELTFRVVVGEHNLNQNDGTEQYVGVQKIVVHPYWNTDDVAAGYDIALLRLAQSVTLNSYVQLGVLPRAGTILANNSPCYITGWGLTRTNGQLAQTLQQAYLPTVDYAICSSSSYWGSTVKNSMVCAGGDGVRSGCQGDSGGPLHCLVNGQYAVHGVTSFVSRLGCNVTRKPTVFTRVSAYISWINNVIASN

SMILES | Ki [1] [nM] | Ki [4] [nM] | further results
COc1ccc(C[C@@H]2NC(=O)[C@H]([C@@H](C)O)NC(=O)[C@@H]3CCCC(=O)NCc4cccc(c4)C[C@H](NC(=O)[C@@H](C)NC(=O)[C@H](C)NC(=O)CCSCc4cccc(c4)CSCCNC(=O)[C@]4(C)CCCN4C2=O)C(=O)N[C@@H](Cc2c[nH]c4ccc(F)cc24)C(=O)N3)cc1 | 44.2 |  | 
COc1ccc(C[C@@H]2NC(=O)[C@H](Cc3cnc[nH]3)NC(=O)[C@H](CC(=O)O)NC(=O)[C@H](Cc3c[nH]c4ccc(F)cc34)NC(=O)[C@H](Cc3c[nH]c4ccc(F)cc34)NC(=O)[C@@H](C)NC(=O)[C@H](CCCCN)NC(=O)CCSCc3cccc(c3)CSCCNC(=O)[C@]3(C)CCCN3C2=O)cc1 | 3.9 |  | 
COc1ccc(C[C@@H]2NC(=O)[C@H]([C@@H](C)O)NC(=O)[C@@H]3CCCCC(=O)NCc4cccc(c4)C[C@H](NC(=O)[C@@H](C)NC(=O)[C@H](C)NC(=O)CCSCc4cccc(c4)CSCCNC(=O)[C@]4(C)CCCN4C2=O)C(=O)N[C@@H](Cc2c[nH]c4ccc(F)cc24)C(=O)N3)cc1 | 4 |  | 
COc1ccc(C[C@@H]2NC(=O)[C@H](Cc3cnc[nH]3)NC(=O)[C@H](CC(=O)O)NC(=O)[C@H](Cc3c[nH]c4ccc(F)cc34)NC(=O)[C@H](Cc3c[nH]c4ccc(F)cc34)NC(=O)[C@@H](C)NC(=O)[C@H](CCCCN(C)C)NC(=O)CCSCc3cccc(c3)CSCCNC(=O)[C@]3(C)CCCN3C2=O)cc1 | 4.2 |  | Activity [2]: Non-Toxic; EC50 [3]: 10000 nM
COc1ccc(C[C@@H]2NC(=O)[C@H]([C@@H](C)O)NC(=O)[C@@H]3CCCCC(=O)NCc4ccc(cc4)C[C@H](NC(=O)[C@@H](C)NC(=O)[C@H](C)NC(=O)CCSCc4cccc(c4)CSCCNC(=O)[C@]4(C)CCCN4C2=O)C(=O)N[C@@H](Cc2c[nH]c4ccc(F)cc24)C(=O)N3)cc1 | 175 |  | 
COc1ccc(C[C@@H]2NC(=O)[C@H]([C@@H](C)O)NC(=O)[C@@H]3CC(=O)NCc4cccc(c4)C[C@H](NC(=O)[C@@H](C)NC(=O)[C@H](C)NC(=O)CCSCc4cccc(c4)CSCCNC(=O)[C@]4(C)CCCN4C2=O)C(=O)N[C@@H](Cc2c[nH]c4ccc(F)cc24)C(=O)N3)cc1 | 285 |  | 
C[C@H]1NC(=O)[C@H](CCC(=O)O)NC(=O)CCSCc2cccc(c2)CSCCNC(=O)[C@]2(C)CCCN2C(=O)[C@H](Cc2ccc(O)cc2)NC(=O)[C@H](Cc2cnc[nH]2)NC(=O)[C@H](CC(=O)O)NC(=O)[C@H](Cc2c[nH]c3ccc(F)cc23)NC(=O)[C@H](Cc2c[nH]c3ccc(F)cc23)NC1=O |  | 202 | Activity [2]: Non-Toxic; EC50 [3]: 1000 nM
C[C@@]12CCCN1C(=O)[C@H](Cc1ccc(O)cc1)NC(=O)[C@H](Cc1cnc[nH]1)NC(=O)[C@H](CC(=O)O)NC(=O)[C@H](Cc1c[nH]c3ccc(F)cc13)NC(=O)[C@H](Cc1c[nH]c3ccc(F)cc13)NC(=O)[C@@H](C1CCCC1)NC(=O)[C@H](CCCCN)NC(=O)CCSCc1cccc(c1)CSCCNC2=O | 23.1 |  | 
CCC[C@H]1NC(=O)[C@H](CCCCN)NC(=O)CCSCc2cccc(c2)CSCCNC(=O)[C@]2(C)CCCN2C(=O)[C@H](Cc2ccc(O)cc2)NC(=O)[C@H](Cc2cnc[nH]2)NC(=O)[C@H](CC(=O)O)NC(=O)[C@H](Cc2c[nH]c3ccc(F)cc23)NC(=O)[C@H](Cc2c[nH]c3ccc(F)cc23)NC1=O | 2.7 | 43.5 | 
CC(C)(C)[C@H]1NC(=O)[C@H](CCCCN)NC(=O)CCSCc2cccc(c2)CSCCNC(=O)[C@]2(C)CCCN2C(=O)[C@H](Cc2ccc(O)cc2)NC(=O)[C@H](Cc2cnc[nH]2)NC(=O)[C@H](CC(=O)O)NC(=O)[C@H](Cc2c[nH]c3ccc(F)cc23)NC(=O)[C@H](Cc2c[nH]c3ccc(F)cc23)NC1=O | 4.2 |  | 
COc1ccc(C[C@@H]2NC(=O)[C@H]([C@@H](C)OC)NC(=O)[C@@H]3CCC(=O)NCc4cccc(c4)C[C@H](NC(=O)[C@@H](C)NC(=O)[C@H](C)NC(=O)CCSCc4cccc(c4)CSCCNC(=O)[C@]4(C)CCCN4C2=O)C(=O)NC(Cc2ccnc4ccc(F)cc24)C(=O)N3C)cc1 (stereo partly drawn) | 2.8 |  | 
C[C@@H]1NC(=O)CCSCc2cccc(c2)CSC[C@@H](C(N)=O)NC(=O)[C@@H]2CCCN2C(=O)[C@H](Cc2ccc(O)cc2)NC(=O)[C@H](Cc2cnc[nH]2)NC(=O)[C@H](CC(=O)O)NC(=O)[C@H](Cc2c[nH]c3ccc(F)cc23)NC(=O)[C@H](Cc2c[nH]c3ccc(F)cc23)NC(=O)CNC1=O ([Mpa]AG[Trp(5-F)][Trp(5-F)]DHYPC-NH2; linker 1-10 via mXylylene) |  | 392 | remaining at 1 h, 100 µM [5]: 54.9%; remaining at 1 h, 100 µM [6]: 92.5%; remaining at 1 h, 100 µM [7]: 15.5%; remaining at 1 h, 100 µM [8]: 1%; half-life at 100 µM [9]: 1.49 h
C[C@@H](O)[C@@H]1NC(=O)[C@@H]2CCCN2C(=O)[C@H](Cc2c[nH]c3ccc(F)cc23)NC(=O)[C@H](Cc2c[nH]c3ccc(F)cc23)NC(=O)CNC(=O)[C@H](CCCCN)NC(=O)CCSCc2cccc(c2)CSC[C@@H](C(N)=O)NC(=O)[C@]2(C)CCCN2C(=O)[C@H](Cc2ccc(O)cc2)NC1=O ([Mpa]KG[Trp(5-F)][Trp(5-F)]PTY[αMeP]C-NH2; linker 1-10 via mXylylene) | 11.7 | 23.9 | remaining at 1 h, 100 µM [5]: 51%; remaining at 1 h, 100 µM [6]: 95%; remaining at 1 h, 100 µM [7]: 91%; remaining at 1 h, 100 µM [8]: 1.9%; half-life at 100 µM [9]: > 6 h
CN1C(=O)[C@H](Cc2c[nH]c3ccc(F)cc23)NC(=O)[C@H](Cc2c[nH]c3ccc(F)cc23)NC(=O)CNC(=O)[C@H](CCCCN)NC(=O)CCSCc2cccc(c2)CSC[C@@H](C(N)=O)NC(=O)[C@@H]2CCCN2C(=O)[C@H](Cc2ccc(O)cc2)NC(=O)[C@H](Cc2cnc[nH]2)NC(=O)[C@@H]1CC(=O)O ([Mpa]KG[Trp(5-F)][Trp(5-F)][NMeD]HYPC-NH2; linker 1-10 via mXylylene) |  | 12900 | 
CC1(c2cccc3ccccc23)NC(=O)CNC(=O)[C@H](CCCCN)NC(=O)CCSCc2cccc(c2)CSC[C@@H](C(N)=O)NC(=O)[C@@H]2CCCN2C(=O)[C@H](Cc2ccc(O)cc2)NC(=O)[C@H](Cc2cnc[nH]2)NC(=O)[C@H](CC(=O)O)NC(=O)[C@H](Cc2c[nH]c3ccc(F)cc23)NC1=O (stereo partly drawn) ([Mpa]KG[X4][Trp(5-F)]DHYPC-NH2; linker 1-10 via mXylylene) |  | 63 | 
NCCCC[C@@H]1NC(=O)CCSCc2cccc(c2)CSC[C@@H](C(N)=O)NC(=O)[C@@H]2CCCN2C(=O)[C@H](Cc2ccc(O)cc2)NC(=O)[C@H](Cc2cnc[nH]2)NC(=O)[C@H](CC(=O)O)NC(=O)[C@H](Cc2c[nH]c3ccc(F)cc23)NC(=O)C(CCc2ccccc2)NC(=O)CNC1=O (stereo partly drawn) ([Mpa]KG[ξhPhe][Trp(5-F)]DHYPC-NH2; linker 1-10 via mXylylene) |  | 2210 | 
CN1CC(=O)N[C@@H](Cc2c[nH]c3ccc(F)cc23)C(=O)N[C@@H](Cc2c[nH]c3ccc(F)cc23)C(=O)N[C@@H](CC(=O)O)C(=O)N[C@@H](Cc2cnc[nH]2)C(=O)N[C@@H](Cc2ccc(O)cc2)C(=O)N2CCC[C@H]2C(=O)N[C@H](C(N)=O)CSCc2cccc(c2)CSCCC(=O)N[C@@H](CCCCN)C1=O ([Mpa]K[Sar][Trp(5-F)][Trp(5-F)]DHYPC-NH2; linker 1-10 via mXylylene) |  | 4090 | 
C[C@H]1NC(=O)[C@H](CCCCN)NC(=O)CCSCc2cc(F)cc(c2)CSC[C@@H](C(N)=O)NC(=O)[C@]2(C)CCCN2C(=O)[C@H](Cc2ccc(O)cc2)NC(=O)[C@H]([C@@H](C)O)NC(=O)[C@@H]2CCCN2C(=O)[C@H](Cc2c[nH]c3ccc(F)cc23)NC(=O)[C@H](Cc2c[nH]c3ccc(F)cc23)NC1=O ([Mpa]K[dA][Trp(5-F)][Trp(5-F)]PTY[αMeP]C-NH2; linker 1-10 via mXylylene(5-F)) | 11 |  | 
CN1C(=O)CCSCc2cccc(c2)CSC[C@@H](C(N)=O)NC(=O)[C@@H]2CCCN2C(=O)[C@H](Cc2ccc(O)cc2)NC(=O)[C@H](Cc2cnc[nH]2)NC(=O)[C@H](CC(=O)O)NC(=O)[C@H](Cc2c[nH]c3ccc(F)cc23)NC(=O)[C@H](Cc2c[nH]c3ccc(F)cc23)NC(=O)CNC(=O)[C@@H]1CCCCN ([Mpa][NMeK]G[Trp(5-F)][Trp(5-F)]DHYPC-NH2; linker 1-10 via mXylylene) |  | 342 | 
NCCCC[C@@H]1NC(=O)CCSCc2cccc(c2)CSCCNC(=O)[C@@H]2CCCN2C(=O)[C@H](Cc2ccc(O)cc2)NC(=O)[C@H](Cc2c[nH]cn2)NC(=O)[C@H](CC(=O)O)NC(=O)[C@H](Cc2c[nH]c3ccc(F)cc23)NC(=O)[C@H](Cc2c[nH]c3ccc(F)cc23)NC(=O)CNC1=O (cyclo(DHYP[X1]KG[Trp(5-F)][Trp(5-F)])) |  | 252 | 
C[C@@]12CCCN1C(=O)[C@H](Cc1ccc(O)cc1)NC(=O)[C@H](Cc1cnc[nH]1)NC(=O)[C@H](CC(=O)O)NC(=O)[C@H](Cc1c[nH]c3ccc(F)cc13)NC(=O)[C@H](Cc1c[nH]c3ccc(F)cc13)NC(=O)CNC(=O)[C@H](CCCCN)NC(=O)CCSCc1cccc(c1)CSCCNC2=O (cyclo(DHY[αMeP][X1]KG[Trp(5-F)][Trp(5-F)])) | 4.3 | 26.6 | remaining at 1 h, 100 µM [5]: 46.1%; remaining at 1 h, 100 µM [6]: 99.1%; remaining at 1 h, 100 µM [7]: 7.4%; remaining at 1 h, 100 µM [8]: 0.8%; half-life at 100 µM [9]: 5.56 h
